Assay results taken from US9717247B2, “Synergistic fungicidal active combinations” (BAYER CROPSCIENCE AG, priority 2003, dated 2017).

How the values were obtained:
Pyricularia oryzae = assay type: cell-based; conditions: 3 ppm; in vitro, PDB, 3 days of incubation
Rhizoctonia solani = Rhizoctonia solani test (in vitro)/microtitre plates; assay type: cell-based; conditions: PDB, 5 days of incubation
Protocol: Rhizoctonia solani Test (In Vitro)/Microtitre Plates The microtest is carried out in microtitre plates using potato dextrose broth (PDB) as liquid test medium. The active compounds are used as technical grade a.i., dissolved in acetone. For inoculation, a mycelium suspension of Rhizoctonia solani is used. After 5 days of incubation in the dark and with shaking (10 Hz) for each filled cavity of the microtitre plates, the light transmittance is determined with the aid of a spectrophotometer.

Puccinia recondita = Puccinia recondita test (wheat)/curative; conditions: application rate 62.5 g/ha, curative, evaluation 8 days after inoculation
Protocol: Puccinia recondita Test (Wheat)/Curative • Solvent: 50 parts by weight of N,N-dimethylacetamide • Emulsifier: 1 part by weight of alkylaryl polyglycol ether
To test for curative activity, young plants are sprayed with a conidia suspension of Puccinia recondita. The plants remain in an incubation cabinet at 20° C. and 100% relative atmospheric humidity for 48 hours.
The plants are placed in a greenhouse at a temperature of about 20° C. and a relative atmospheric humidity of about 80% to promote the development of rust pustules.
Evaluation is carried out 8 days after the inoculation.

Pyrenophora teres = Pyrenophora teres test (barley)/curative; conditions: in Hordeum vulgare, 288 h, read-out: Efficacy in % found
Protocol: Pyrenophora teres Test (Barley)/Curative • Solvent: 50 parts by weight of N,N-dimethylacetamide • Emulsifier: 1 part by weight of alkylaryl polyglycol ether
To test for curative activity, young plants are sprayed with a conidia suspension of Pyrenophora teres. The plants remain in an incubation cabinet at 20° C. and 100% relative atmospheric humidity for 48 hours.
The plants are placed in a greenhouse at a temperature of about 20° C. and a relative atmospheric humidity of about 80%.
Evaluation is carried out 12 days after the inoculation.

Alternaria solani = Alternaria solani test (tomato)/protective; assay type: in vivo; conditions: protective, 3 days after inoculation
Botrytis cinerea [1] = assay: Botrytis cinerea test (bean)/protective; conditions: protective, 2 days after inoculation
Protocol: After the spray coating has dried on, 2 small pieces of agar colonized by Botrytis cinerea are placed onto each leaf. The inoculated plants are placed in a darkened chamber at about 20° C. and 100% relative atmospheric humidity.
The size of the infected areas on the leaves is evaluated 2 days after the inoculation.

Botrytis cinerea [2] = assay: Botrytis cinerea test (in vitro)/microtitre plates; assay type: cell-based; conditions: 3 ppm, PDB, 7 days of incubation
Gibberella zeae = assay type: cell-based; conditions: 0.3 ppm; in vitro, PDB, 3 days of incubation
[3] = test system: Erysiphe graminis f.sp. hordei; assay: Erysiphe test (barley)/protective; assay type: in vivo; conditions: application rate 12.5 g/ha, protective, evaluation 6 days after inoculation
[4] = test system: Erysiphe graminis f.sp. hordei; assay: Erysiphe test (barley)/curative; assay type: in vivo; conditions: application rate 25 g/ha, curative, evaluation 6 days after inoculation
Plasmopara viticola = Plasmopara viticola test (grapevine)/protective; assay type: in vivo; conditions: protective, 6 days after inoculation
Sphaerotheca fuliginea = Sphaerotheca fuliginea test (cucumber)/protective; assay type: in vivo; conditions: Podosphaera fuliginea, 168 h, protective, 7 days after inoculation, read-out: Efficacy in % found

Cc1nn(C)c(F)c1C(=O)Nc1ccccc1C(C)CC(C)C (centres unmarked) [(1-2), N-[2-(1,3-dimethylbutyl)phenyl]-5-fluoro-1,3-dimethyl-1H-pyrazole-4-carboxamide]
Efficacy in % found (Pyricularia oryzae): 17% | Efficacy in % found (Rhizoctonia solani; 0.003 ppm): 30% | Efficacy in % found (Rhizoctonia solani; 1 ppm): 40% | Efficacy in % found (Puccinia recondita): 94% | pest or weed control at 25 g/ha (Pyrenophora teres): 29% | pest or weed control at 62.5 g/ha (Pyrenophora teres): 71% | Efficacy in % found (Alternaria solani; application rate 1 g/ha): 3% | Efficacy in % found (Alternaria solani; application rate 2 g/ha): 23% | Efficacy in % found (Botrytis cinerea [1]; application rate 5 g/ha): 33% | Efficacy in % found (Botrytis cinerea [1]; application rate 10 g/ha): 64% | Efficacy in % found (Botrytis cinerea [1]; application rate 20 g/ha): 66% | Efficacy in % found (Botrytis cinerea [2]): 35% | Efficacy in % found (Gibberella zeae): 39% | Efficacy in % found [3]: 0% | Efficacy in % found [4]: 0% | Efficacy in % found (Plasmopara viticola; application rate 25 g/ha): 0% | Efficacy in % found (Plasmopara viticola; application rate 50 g/ha): 0% | pest or weed control at 0.5 g/ha (Sphaerotheca fuliginea; application rate 0.5 g/ha): 0% | pest or weed control at 1 g/ha (Sphaerotheca fuliginea; application rate 1 g/ha): 18% | pest or weed control at 2 g/ha (Sphaerotheca fuliginea; application rate 2 g/ha): 30% | pest or weed control at 4 g/ha (Sphaerotheca fuliginea; application rate 4 g/ha): 20%

CSC1=N[C@@](C)(c2ccccc2)C(=O)N1Nc1ccccc1 [(19-3) fenamidone]
Efficacy in % found (Gibberella zeae): 15%

COC(=O)Nc1nc2ccccc2[nH]1 [(10-3) carbendazim, carbendazim]
Efficacy in % found (Botrytis cinerea [2]): 86%
